This is an account of results in US20100063047A1 (KALYPSYS, INC., priority 2008, published 2010).

Experiment [1] addresses T1, human H4 (Homo sapiens, UniProt Q9H3N8).
T1 construct: host or cells: CHO-K1, also expressing mitochondrion-targeted aequorin and human Gα16
Kind of experiment: In vitro histamine H4 receptor cell-based aequorin bioluminescence antagonist assay. To be noted: CHO-K1 cells expressing human H4, aequorin and Gα16; histamine at EC80. Here is the method: In vitro Histamine Receptor Cell-Based Assays
The cell-based assays utilize an aequorin dependent bioluminescence signal. Doubly-transfected, stable CHO—K1 cell lines expressing human H1 or H4, mitochondrion-targeted aequorin, and (H4 only) human G protein Gα16 are obtained from Perkin-Elmer. Cells are maintained in F12 (Ham's) growth medium, containing 10% (vol./vol.) fetal bovine serum, penicillin (100 IU/mL), streptomycin (0.1 mg/mL), zeocin (0.25 mg/mL) and geneticin (0.40 mg/mL). Cell media components are from Invitrogen, Inc. One day prior to assay, the growth medium is replaced with the same, excluding zeocin and geneticin.
For assay preparation, growth medium is aspirated, and cells are rinsed with calcium-free, magnesium-free phosphate-buffered saline, followed by two to three minute incubation in Versene (Invitrogen, Inc.) at 37° C. Assay medium (DMEM:F12 [50:50], phenol-red free, containing 1 mg/mL protease-free bovine serum albumin) is added to collect the released cells, which are then centrifuged. The cell pellet is re-suspended in assay medium, centrifuged once more, and re-suspended in assay medium to a final density of 5×10^6 cells/mL. Coelenterazine-h dye (500 μM in ethanol) is added to a final concentration of 5 μM, and mixed immediately. The conical tube containing the cells is then wrapped with foil to protect the light-sensitive dye. The cells are incubated for four hours further at room temperature (approximately 21° C.) with end-over-end rotation to keep them in suspension.
Just before assay, the dye-loaded cells are diluted to 0.75×10^6 cells/mL (H1 receptor) or 1.5×10^6 cells/mL (H4 receptor) with additional assay medium. Cells are dispensed to 1536 well micro-titer plates at 3 μL/well. To assay receptor antagonism, 60 nl of 100× concentration test compounds in 100% dimethyl sulfoxide (DMSO) are dispensed to the wells, one compound per well, by passive pin transfer, and the plates are incubated for 15 minutes at room temperature. […] The pipette dispenses 3 μL/well of agonist (histamine, at twice the final concentration, where final concentration is a previously determined EC80) in assay medium, with concurrent bioluminescence detection. Agonist activity of test compounds is excluded by separate assays that measure response to test compounds immediately, without added histamine agonist.
CCD image capture on the Lumilux includes a 5 second baseline read prior to agonist addition, and generally a 40 second read per plate after agonist addition. A decrease in bioluminescence signal (measured either as area-under-the-curve, or maximum signal amplitude minus minimum signal amplitude) correlates with receptor antagonism in a dose dependent manner. The negative control is DMSO lacking any test compound. For antagonist assays, the positive controls are diphenhydramine (2-Diphenylmethoxy-N,N-dimethylethylamine, 10 μM final concentration, H1 receptor) or JNJ7777120 (1-[(5-Chloro-1H-indol-2-yl)carbonyl]-4-methyl-piperazine, 10 μM final concentration, H4 receptor). Efficacy is measured as a percentage of positive control activity.

Experiment [2] concerns the target T2, human H1 (Homo sapiens, UniProt P35367).
T2 construct: host or cells: CHO-K1, also expressing mitochondrion-targeted aequorin
Kind of experiment: In vitro histamine H1 receptor cell-based aequorin bioluminescence antagonist assay. To be noted: CHO-K1 cells expressing human H1 and aequorin; histamine at EC80; read-out: H1 Antagonist EC50. Put shortly: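 CHO-K1 cells stably expressing human H1 or H4 plus mitochondrial aequorin (H4 also with Gα16), loaded with 5 μM coelenterazine-h for 4 h at ~21 °C. Compounds preincubated 15 min at room temperature, then histamine at EC80 added.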

pEC50: −log10 of the molar value.

T1 sequence (Q9H3N8 whole entry): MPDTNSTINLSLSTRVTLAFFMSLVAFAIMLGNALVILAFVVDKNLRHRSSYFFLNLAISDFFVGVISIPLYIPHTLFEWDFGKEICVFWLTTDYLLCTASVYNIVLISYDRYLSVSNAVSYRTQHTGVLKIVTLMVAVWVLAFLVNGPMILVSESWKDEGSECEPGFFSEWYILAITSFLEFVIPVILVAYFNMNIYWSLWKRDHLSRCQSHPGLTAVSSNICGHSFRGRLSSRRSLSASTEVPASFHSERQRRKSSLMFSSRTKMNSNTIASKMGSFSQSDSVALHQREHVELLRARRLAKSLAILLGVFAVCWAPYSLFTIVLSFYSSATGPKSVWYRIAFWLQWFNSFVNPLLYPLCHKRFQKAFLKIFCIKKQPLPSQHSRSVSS
T2 sequence (P35367 whole entry): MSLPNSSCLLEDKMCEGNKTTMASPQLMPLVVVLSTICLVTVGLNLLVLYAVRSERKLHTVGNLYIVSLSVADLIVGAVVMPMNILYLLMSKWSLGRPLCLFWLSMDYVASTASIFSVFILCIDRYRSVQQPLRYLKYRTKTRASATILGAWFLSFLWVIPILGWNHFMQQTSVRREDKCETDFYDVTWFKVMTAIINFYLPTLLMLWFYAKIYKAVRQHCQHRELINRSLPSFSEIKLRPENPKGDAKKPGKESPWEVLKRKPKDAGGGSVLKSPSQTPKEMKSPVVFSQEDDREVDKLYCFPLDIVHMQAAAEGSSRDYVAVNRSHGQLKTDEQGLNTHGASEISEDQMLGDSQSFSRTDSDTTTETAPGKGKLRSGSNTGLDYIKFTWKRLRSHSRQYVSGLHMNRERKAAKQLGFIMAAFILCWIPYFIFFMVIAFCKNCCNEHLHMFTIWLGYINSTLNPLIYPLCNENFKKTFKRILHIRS

For the compound `Cc1ccc(N2CCN(c3ncnc4scc(C)c34)CC2)cc1C` [Example 257, 1-(3,4-dimethylphenyl)-4-{5-methylthieno[2,3-d]pyrimidin-4-yl}piperazine], the pEC50 in experiment [1] and in experiment [2] was below 5.00 in each case.
Regarding `Cc1ccc(Cl)cc1N1CCN(c2ncnc3scc(C)c23)CC1` [Example 275, 1-(5-chloro-2-methylphenyl)-4-{5-methylthieno[2,3-d]pyrimidin-4-yl}piperazine], the pEC50 in experiment [1] and in experiment [2] was below 5.00 throughout.
On to `CCN(C)c1ncnc2scc(C)c12` [Example 179, N-ethyl-N,5-dimethylthieno[2,3-d]pyrimidin-4-amine], for which the negative-log EC50 (pEC50) in experiment [1] and in experiment [2] was below 5.00 in each case.
In the case of `Cc1ccc([C@@H](C)Nc2ncnc3scc(C)c23)cc1` [Example 115, 5-methyl-N-[(1R)-1-(4-methylphenyl)ethyl]thieno[2,3-d]pyrimidin-4-amine], the negative logarithm of the EC50 (pEC50) in experiment [1] and in experiment [2] was below 5.00 in each case.
Take `Cc1csc2ncnc(N3C(C)CCCC3C)c12` (stereo not shown) [Example 201, 2,6-dimethyl-1-{5-methylthieno[2,3-d]pyrimidin-4-yl}piperidine]: the pEC50 in experiment [1] and in experiment [2] was below 5.00 in each case.
Regarding `Cc1csc2ncnc(N(CCN(C)C)Cc3ccccc3)c12` [Example 244, N-benzyl-N-[2-(dimethylamino)ethyl]-5-methylthieno[2,3-d]pyrimidin-4-amine], the pEC50 in experiment [1] and in experiment [2] was below 5.00 in each case.
As for `CCCCN(CC)c1ncnc2scc(C)c12` [Example 195, N-butyl-N-ethyl-5-methylthieno[2,3-d]pyrimidin-4-amine], the pEC50 in experiment [1] and in experiment [2] was below 5.00 each time.
Take `Cc1csc2ncnc(NCC(C)C)c12` [Example 61, 5-methyl-N-(2-methylpropyl)thieno[2,3-d]pyrimidin-4-amine]: the pEC50 in experiment [1] and in experiment [2] was below 5.00 each time.
Turning to `CNc1ncnc2scc(C)c12` [Example 49, N,5-dimethylthieno[2,3-d]pyrimidin-4-amine], the pEC50 in experiment [1] and in experiment [2] was below 5.00 in each case.
With `Cc1csc2ncnc(NCCCO)c12` [Example 62, 3-({5-methylthieno[2,3-d]pyrimidin-4-yl}amino)propan-1-ol], the pEC50 in experiment [1] and in experiment [2] was below 5.00 in each case.
With `Cc1cccc(N2CCN(c3ncnc4scc(C)c34)CC2)c1C` [Example 254, 1-(2,3-dimethylphenyl)-4-{5-methylthieno[2,3-d]pyrimidin-4-yl}piperazine], the negative logarithm of the EC50 (pEC50) in experiment [1] and in experiment [2] was below 5.00 throughout.
Take `Cc1csc2ncnc(N3CCN(c4ccc(O)cc4)CC3)c12` [Example 243, 4-(4-{5-methylthieno[2,3-d]pyrimidin-4-yl}piperazin-1-yl)phenol]: the pEC50 in experiment [1] and in experiment [2] was below 5.00 in each case.
For the compound `COc1ccc(Nc2ncnc3scc(C)c23)cc1OC` [Example 147, N-(3,4-dimethoxyphenyl)-5-methylthieno[2,3-d]pyrimidin-4-amine], the negative-log EC50 (pEC50) in experiment [1] and in experiment [2] was below 5.00 throughout.
`Cc1ccc(S(=O)(=O)NCCNc2ncnc3scc(C)c23)cc1` [Example 177, 4-methyl-N-[2-({5-methylthieno[2,3-d]pyrimidin-4-yl}amino)ethyl]benzene-1-sulfonamide]: the pEC50 in experiment [1] and in experiment [2] was below 5.00 in each case.
Consider `Cc1csc2ncnc(N3CCCC4CCCCC43)c12` (stereo not shown) [Example 222, 1-{5-methylthieno[2,3-d]pyrimidin-4-yl}-decahydroquinoline], for which the pEC50 in experiment [1] and in experiment [2] was below 5.00 in each case.
`CCN(c1ncnc2scc(C)c12)C1CCCCC1` [Example 210, N-cyclohexyl-N-ethyl-5-methylthieno[2,3-d]pyrimidin-4-amine]: the pEC50 in experiment [1] and in experiment [2] was below 5.00 in each case.
In the case of `Cc1csc2ncnc(N3CCCC(CO)C3)c12` (stereo not shown) [Example 204, (1-{5-methylthieno[2,3-d]pyrimidin-4-yl}piperidin-3-yl)methanol], the pEC50 in experiment [1] and in experiment [2] was below 5.00 in each case.
In the case of `Cc1csc2ncnc(N3CCCN(Cc4ccccc4)CC3)c12` [Example 242, 1-benzyl-4-{5-methylthieno[2,3-d]pyrimidin-4-yl}-1,4-diazepane], the pEC50 in experiment [1] and in experiment [2] was below 5.00 throughout.
Consider `CCNc1ncnc2scc(C)c12` [Example 50, N-ethyl-5-methylthieno[2,3-d]pyrimidin-4-amine], for which the pEC50 in experiment [1] and in experiment [2] was below 5.00 in each case.
As for `Cc1csc2ncnc(NCCCn3ccnc3)c12` [Example 105, N-[3-(1H-imidazol-1-yl)propyl]-5-methylthieno[2,3-d]pyrimidin-4-amine], the pEC50 in experiment [1] and in experiment [2] was below 5.00 throughout.
Regarding `Cc1csc2ncnc(NCC3(O)CCCCC3)c12` [Example 158, 1-[({5-methylthieno[2,3-d]pyrimidin-4-yl}amino)methyl]cyclohexan-1-ol], the pEC50 in experiment [1] and in experiment [2] was below 5.00 in each case.
On to `Cc1csc2ncnc(NC3CC(C)(C)NC(C)(C)C3)c12` [Example 150, 2,2,6,6-tetramethyl-N-{5-methylthieno[2,3-d]pyrimidin-4-yl}piperidin-4-amine], for which the pEC50 in experiment [1] and in experiment [2] was below 5.00 each time.
As to `Cc1csc2ncnc(N3CCC(O)(O)CC3)c12` [Example 228, 1-{5-methylthieno[2,3-d]pyrimidin-4-yl}piperidine-4,4-diol], the pEC50 in experiment [1] and in experiment [2] was below 5.00 each time.
Regarding `Cc1csc2ncnc(N3CCN(c4ccccc4)CC3)c12` [Example 233, 1-{5-methylthieno[2,3-d]pyrimidin-4-yl}-4-phenylpiperazine], the negative logarithm of the EC50 (pEC50) in experiment [1] and in experiment [2] was below 5.00 in each case.
`Cc1csc2ncnc(N3CCCC(C(N)=O)C3)c12` (stereo not shown) [Example 213, 1-{5-methylthieno[2,3-d]pyrimidin-4-yl}piperidine-3-carboxamide]: the negative-log EC50 (pEC50) in experiment [1] and in experiment [2] was below 5.00 in each case.
Regarding `C#CCN(Cc1ccc(Cl)cc1Cl)c1ncnc2scc(C)c12` [Example 281, N-[(2,4-dichlorophenyl)methyl]-5-methyl-N-(prop-2-yn-1-yl)thieno[2,3-d]pyrimidin-4-amine], the negative-log EC50 (pEC50) in experiment [1] and in experiment [2] was below 5.00 throughout.
As for `CCN(c1ncnc2scc(C)c12)C(Cc1ccccc1)c1ccco1` (stereo not shown) [Example 282, N-ethyl-N-[1-(furan-2-yl)-2-phenylethyl]-5-methylthieno[2,3-d]pyrimidin-4-amine], the negative-log EC50 (pEC50) in experiment [1] and in experiment [2] was below 5.00 throughout.
On to `CCCN(C)c1ncnc2scc(C)c12` [Example 182, N,5-dimethyl-N-propylthieno[2,3-d]pyrimidin-4-amine], for which the negative-log EC50 (pEC50) in experiment [1] and in experiment [2] was below 5.00 throughout.
Turning to `Cc1csc2ncnc(N(C)CC(C)C)c12` [Example 185, N,5-dimethyl-N-(2-methylpropyl)thieno[2,3-d]pyrimidin-4-amine], the negative-log EC50 (pEC50) in experiment [1] and in experiment [2] was below 5.00 throughout.
Take `Cc1csc2ncnc(NCCN)c12` [Example 55, N-(2-aminoethyl)-5-methylthieno[2,3-d]pyrimidin-4-amine]: the negative logarithm of the EC50 (pEC50) in experiment [1] and in experiment [2] was below 5.00 throughout.
On to `Cc1csc2ncnc(N3CCN(c4ccc(F)cc4)CC3)c12` [Example 246, 1-(4-fluorophenyl)-4-{5-methylthieno[2,3-d]pyrimidin-4-yl}piperazine], for which the negative-log EC50 (pEC50) in experiment [1] and in experiment [2] was below 5.00 in each case.
`Cc1csc2ncnc(NCCC#N)c12` [Example 57, 3-({5-methylthieno[2,3-d]pyrimidin-4-yl}amino)propanenitrile]: the pEC50 in experiment [1] and in experiment [2] was below 5.00 throughout.

In general, pEC50 refers to the negative decadic logarithm of the EC50, by convention in mol/L.
